Experimental data published in US20240398817A1, “CARDIO- AND RENOSAFE ANTIDIABETIC THERAPY” (priority 2018, published 2024).

Tested on: patients with type 2 diabetes at high vascular risk
Assay: Cardiovascular and Renal Outcomes Trial: linagliptin 5 mg once daily vs placebo on top of standard of care
Assay type: in vivo
Details: for Hazard ratio for hospitalised heart failure: vs placebo
Procedure: The effect of linagliptin on cardiovascular risk in adult patients with type 2 diabetes mellitus and with increased CV risk evidenced by a history of established macrovascular or renal disease (e.g. as defined herein) was evaluated in a multi-center, multi-national, randomized, double-blind parallel group trial. The trial compared the risk of experiencing a major adverse cardiovascular event (MACE) between linagliptin and placebo when these were added to and used concomitantly with standard of care treatments for diabetes (HbA1c), cardiovascular risk factors and renal disease.
The primary endpoint in this trial was the time to first occurrence of three point (3P) MACE. A major adverse cardiac event was defined as a cardiovascular death or a nonfatal myocardial infarction (MI) or a nonfatal stroke. The statistical analysis plan tested for non-inferiority for the occurrence of (3P) MACE. […] The secondary endpoint was a renal composite, defined as renal death or sustained end stage renal disease or sustained decrease of 40% or more in eGFR.
Type 2 diabetes patient with insufficient glycemic control (naïve or pre-treated with any antidiabetic background medication, excluding treatment with GLP-1 receptor agonists, DPP-4inhibitors or SGLT-2 inhibitors if ≥consecutive 7 days, e.g. having HbA1c 6.5-10%), and high risk of cardiovascular events, e.g. defined by: • albuminuria (micro or macro) and previous macrovascular disease: e.g. defined according to Condition I as indicated below; • and/or • impaired renal function: e.g. as defined according to Condition II as indicated below;
Background and aims: People with type 2 diabetes (T2D) are at increased risk for hospitalization for heart failure (hHF), particularly in the setting of concomitant cardiovascular (CV) and/or kidney disease. […] Here we present analyses of HF outcomes with the DPP-4 inhibitor linagliptin (LINA) vs. placebo (PBO) from a Cardiovascular and Renal Outcomes Trial assessing cardiovascular safety and renal microvascular outcome in patients with type 2 diabetes at high vascular risk, a large CV outcomes trial that enrolled participants with T2D at high risk for hHF due to concomitant CV and/or chronic kidney disease. Materials and methods: People with T2D and concomitant CV and/or kidney disease were randomized to receive LINA 5 mg, or PBO once daily (1:1), on top of standard of care. All hHF, CV outcomes, and deaths were centrally adjudicated, with individual and composite HF-related outcomes analyses comparing LINA vs. placebo. Investigator-reported HF-related adverse events, whether or not confirmed by adjudication, were also analyzed. A Cox proportional hazards model adjusting for region and history of HF was used for analyses of first events. Recurrent hHF events were analyzed using a negative binomial model.
Methods: The present Cardiovascular and Renal Outcomes Trial randomized people with T2D and i) concomitant CV disease with UACR >30 mg/g or ii) prevalent CKD (i.e. GFR <45 ml/min/1.73m2 and/or UACR >200 mg/g) to receive the DPP-4 inhibitor linagliptin (5 mg) or placebo once daily in a double-blind fashion. The primary CV endpoint was 3P-MACE, with a key secondary kidney endpoint (adjudicated ESKD, renal death, or sustained ≥40% decrease in eGFR from baseline) and other renal outcomes (including albuminuria and eGFR slope) also assessed. Subgroups were assessed by baseline kidney function (eGFR ≥/<45 ml/min/1.73m2and eGFR ≥/<30, 45 or 60 ml/min/1.73m2).
Adults with type 2 diabetes, HbA1c 6.5-10.0% inclusive, and high CV risk were eligible for inclusion. […] Macrovascular disease eligibility criteria was based on documented and confirmed history of myocardial infarction, coronary artery disease, stroke, carotid artery disease, or peripheral artery disease. Participants with end-stage kidney disease (ESKD), defined as eGFR <15 or requiring maintenance dialysis, were excluded.

[1] = CKD prognosis by KDIGO Very high
[2] = Calcium channel blockers (CCB) No
[3] = Calcium channel blockers (CCB) Yes
[4] = Cardiorenal risk: Albuminuria and previous macrovascular disease plus eGFR 45-75 mL/min/1.73 m^2 with an UACR >200 mg/g
[5] = Cardiorenal risk: Albuminuria and previous macrovascular disease plus renal impairment (eGFR 15-<45 mL/min/1.73 m^2 with any UACR mg/g)
[6] = Cardiorenal risk: Albuminuria and previous macrovascular disease without eGFR>45 mL/min/1.73 m2
[7] = Duration of type 2 diabetes >5 to <10 years
[8] = Duration of type 2 diabetes ≤5 years

SMILES: CC#CCn1c(N2CCC[C@@H](N)C2)nc2c1c(=O)n(Cc1nc(C)c3ccccc3n1)c(=O)n2C [Linagliptin, 1-[(4-methyl-quinazolin-2-yl)methyl]-3-methyl-7-(2-butyn-1-yl)-8-(3-(R)-amino-piperidin-1-yl)-xanthine]
- 3-point MACE: hazard ratio vs placebo (Body mass index ≥30 kg/m^2): 1.06
- 3-point MACE: patients with event/patients analyzed (Body mass index ≥30 kg/m^2): 243/1978
- Key secondary kidney outcome: hazard ratio vs placebo (Body mass index ≥30 kg/m^2): 0.96
- Key secondary kidney outcome: patients with event/patients analyzed (Body mass index ≥30 kg/m^2): 165/1978
- Patients with event/patients analysed, hospitalised heart failure (Body mass index ≥30 kg/m^2): 131/1978
- Hazard ratio for hospitalised heart failure (Body mass index ≥30 kg/m^2): 0.86
- 3-point MACE: hazard ratio vs placebo (CKD prognosis by KDIGO High): 1.05
- 3-point MACE: patients with event/patients analyzed (CKD prognosis by KDIGO High): 111/995
- Key secondary kidney outcome: patients with event/patients analyzed (CKD prognosis by KDIGO High): 57/995
- Patients with event/patients analysed, hospitalised heart failure (CKD prognosis by KDIGO High): 45/995
- 3-point MACE: hazard ratio vs placebo (CKD prognosis by KDIGO Low): 1.13
- 3-point MACE: patients with event/patients analyzed (CKD prognosis by KDIGO Low): 11/232
- Key secondary kidney outcome: patients with event/patients analyzed (CKD prognosis by KDIGO Low): 8/232
- Patients with event/patients analysed, hospitalised heart failure (CKD prognosis by KDIGO Low): 2/232
- 3-point MACE: hazard ratio vs placebo (CKD prognosis by KDIGO Medium): 0.89
- 3-point MACE: patients with event/patients analyzed (CKD prognosis by KDIGO Medium): 61/766
- Key secondary kidney outcome: patients with event/patients analyzed (CKD prognosis by KDIGO Medium): 14/766
- Patients with event/patients analysed, hospitalised heart failure (CKD prognosis by KDIGO Medium): 18/766
- 3-point MACE: hazard ratio vs placebo [1]: 1.04
- 3-point MACE: patients with event/patients analyzed [1]: 250/1499
- Key secondary kidney outcome: patients with event/patients analyzed [1]: 248/1499
- Patients with event/patients analysed, hospitalised heart failure [1]: 144/1499
- Patients with event/patients analysed, hospitalised heart failure [2]: 113/2061
- Hazard ratio for hospitalised heart failure [2]: 0.86
- Patients with event/patients analysed, hospitalised heart failure [3]: 96/1433
- Hazard ratio for hospitalised heart failure [3]: 0.94
- 3-point MACE: hazard ratio vs placebo (Calcium channel blockers No): 0.91
- 3-point MACE: patients with event/patients analyzed (Calcium channel blockers No): 239/2061
- Key secondary kidney outcome: hazard ratio vs placebo (Calcium channel blockers No): 1.03
- Key secondary kidney outcome: patients with event/patients analyzed (Calcium channel blockers No): 155/2061
- 3-point MACE: hazard ratio vs placebo (Calcium channel blockers Yes): 1.21
- 3-point MACE: patients with event/patients analyzed (Calcium channel blockers Yes): 195/1433
- Key secondary kidney outcome: hazard ratio vs placebo (Calcium channel blockers Yes): 1.05
- Key secondary kidney outcome: patients with event/patients analyzed (Calcium channel blockers Yes): 172/2860
- 3-point MACE: hazard ratio vs placebo (Cardiorenal risk Cat A): 0.97
- 3-point MACE: patients with event/patients analyzed (Cardiorenal risk Cat A): 117/1361
- Key secondary kidney outcome: hazard ratio vs placebo (Cardiorenal risk Cat A): 1.22
- Key secondary kidney outcome: patients with event/patients analyzed (Cardiorenal risk Cat A): 38/1361
- 3-point MACE: hazard ratio vs placebo (Cardiorenal risk Cat B): 0.92
- 3-point MACE: patients with event/patients analyzed (Cardiorenal risk Cat B): 86/394
- Key secondary kidney outcome: hazard ratio vs placebo (Cardiorenal risk Cat B): 0.79
- Key secondary kidney outcome: patients with event/patients analyzed (Cardiorenal risk Cat B): 51/394
- 3-point MACE: hazard ratio vs placebo (Cardiorenal risk Cat C): 0.76
- 3-point MACE: patients with event/patients analyzed (Cardiorenal risk Cat C): 33/253
- Key secondary kidney outcome: hazard ratio vs placebo (Cardiorenal risk Cat C): 1.53
- Key secondary kidney outcome: patients with event/patients analyzed (Cardiorenal risk Cat C): 23/253
- 3-point MACE: hazard ratio vs placebo (Cardiorenal risk Cat D): 1.12
- 3-point MACE: patients with event/patients analyzed (Cardiorenal risk Cat D): 163/1153
- Key secondary kidney outcome: hazard ratio vs placebo (Cardiorenal risk Cat D): 1.01
- Key secondary kidney outcome: patients with event/patients analyzed (Cardiorenal risk Cat D): 180/1153
- 3-point MACE: hazard ratio vs placebo (Cardiorenal risk Cat E): 1.13
- 3-point MACE: patients with event/patients analyzed (Cardiorenal risk Cat E): 32/309
- Key secondary kidney outcome: hazard ratio vs placebo (Cardiorenal risk Cat E): 1.04
- Key secondary kidney outcome: patients with event/patients analyzed (Cardiorenal risk Cat E): 35/309
- Patients with event/patients analysed, hospitalised heart failure [4]: 67/647
- Hazard ratio for hospitalised heart failure [4]: 0.81
- Patients with event/patients analysed, hospitalised heart failure [5]: 95/14612
- Hazard ratio for hospitalised heart failure [5]: 0.86
- Patients with event/patients analysed, hospitalised heart failure [6]: 46/1361
- Hazard ratio for hospitalised heart failure [6]: 1.19
- 3-point MACE: hazard ratio vs placebo (Diuretics No): 1.15
- 3-point MACE: patients with event/patients analyzed (Diuretics No): 159/1602
- Key secondary kidney outcome: hazard ratio vs placebo (Diuretics No): 1.06
- Key secondary kidney outcome: patients with event/patients analyzed (Diuretics No): 129/1602
- Patients with event/patients analysed, hospitalised heart failure (Diuretics No): 53/1602
- Hazard ratio for hospitalised heart failure (Diuretics No): 1.26
- 3-point MACE: hazard ratio vs placebo (Diuretics Yes): 0.97
- 3-point MACE: patients with event/patients analyzed (Diuretics Yes): 275/1892
- Key secondary kidney outcome: hazard ratio vs placebo (Diuretics Yes): 1.04
- Key secondary kidney outcome: patients with event/patients analyzed (Diuretics Yes): 198/1892
- Patients with event/patients analysed, hospitalised heart failure (Diuretics Yes): 156/1892
- Hazard ratio for hospitalised heart failure (Diuretics Yes): 0.83
- 3-point MACE: hazard ratio vs placebo [7]: 1.01
- 3-point MACE: patients with event/patients analyzed [7]: 73/696
- Key secondary kidney outcome: hazard ratio vs placebo [7]: 0.94
- Key secondary kidney outcome: patients with event/patients analyzed [7]: 56/699
- Patients with event/patients analysed, hospitalised heart failure [7]: 42/696
- Hazard ratio for hospitalised heart failure [7]: 0.96
- 3-point MACE: hazard ratio vs placebo [8]: 0.98
- 3-point MACE: patients with event/patients analyzed [8]: 45/521
- Key secondary kidney outcome: hazard ratio vs placebo [8]: 1.97
- Key secondary kidney outcome: patients with event/patients analyzed [8]: 41/521
- Patients with event/patients analysed, hospitalised heart failure [8]: 18/521
- Hazard ratio for hospitalised heart failure [8]: 0.82
- 3-point MACE: hazard ratio vs placebo (Duration of type 2 diabetes ≥10 years): 1.03
